Our source for the IC50 values is patent US20220144848A1, “SUBSTITUTED OXOPYRIDINE DERIVATIVES” (Bayer Aktiengesellschaft, priority 2018, published 2022).

Usually IC50 stands for the concentration that inhibits the measured activity by half.

SMILES strings stand for the structures.

Assay [1] concerns the target T1, human factor XIa (Homo sapiens, UniProt P03951).
T1 construct: purchased Kordia
Put plainly: Measurement of FXIa inhibition (fluorogenic peptide substrate Boc-Glu(OBzl)-Ala-Arg-AMC). The class given is biochemical. The note with it: factor XIa from Kordia, 15 min preincubation, 30 min at 22° C., fluorescence; some as mean values from multiple determinations. How it is done: The factor XIa inhibition of the substances according to the invention is determined using a biochemical test system which utilizes the reaction of a peptidic factor XIa substrate to determine the enzymatic activity of human factor XIa. Here, factor XIa cleaves from the peptidic factor XIa substrate the C-terminal aminomethylcoumarin (AMC), the fluorescence of which is measured. The determinations are carried out in microtitre plates.
Test substances are dissolved in dimethyl sulfoxide and serially diluted in dimethyl sulfoxide (3000 μM to 0.0078 μM; resulting final concentrations in the test: 50 μM to 0.00013 μM). In each case 1 μl of the diluted substance solutions is placed into the wells of white microtitre plates from Greiner (384 wells). 20 μl of assay buffer (50 mM of Tris/HCl pH 7.4; 100 mM of sodium chloride; 5 mM of calcium chloride; 0.1% of bovine serum albumin) and 20 μl of factor XIa from Kordia (0.45 nM in assay buffer) are then added successively. After 15 min of incubation, the enzyme reaction is started by addition of 20 μl of the factor XIa substrate Boc-Glu(OBzl)-Ala-Arg-AMC dissolved in assay buffer (10 μM in assay buffer) from Bachem, the mixture is incubated at room temperature (22° C.) for 30 min and fluorescence is then measured (excitation: 360 nm, emission: 460 nm). The measured emissions of the test batches with test substance are compared to those of control batches without test substance (only dimethyl sulfoxide instead of test substance in dimethyl sulfoxide), and IC50 values are calculated from the concentration/activity relationships.

The target in assay [2] is T2, human plasma kallikrein (Homo sapiens, UniProt P03952).
T2 construct: purchased Kordia
T2 sequence (P03952 391-638 limits assumed): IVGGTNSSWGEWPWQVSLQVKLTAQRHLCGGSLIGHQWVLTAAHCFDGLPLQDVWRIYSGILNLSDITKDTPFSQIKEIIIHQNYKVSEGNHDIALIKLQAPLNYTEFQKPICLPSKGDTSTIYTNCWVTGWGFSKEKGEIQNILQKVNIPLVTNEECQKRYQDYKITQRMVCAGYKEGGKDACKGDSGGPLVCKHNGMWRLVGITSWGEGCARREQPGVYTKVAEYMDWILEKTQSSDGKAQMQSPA
T2 sequence (P03952 20-390 partner limits assumed): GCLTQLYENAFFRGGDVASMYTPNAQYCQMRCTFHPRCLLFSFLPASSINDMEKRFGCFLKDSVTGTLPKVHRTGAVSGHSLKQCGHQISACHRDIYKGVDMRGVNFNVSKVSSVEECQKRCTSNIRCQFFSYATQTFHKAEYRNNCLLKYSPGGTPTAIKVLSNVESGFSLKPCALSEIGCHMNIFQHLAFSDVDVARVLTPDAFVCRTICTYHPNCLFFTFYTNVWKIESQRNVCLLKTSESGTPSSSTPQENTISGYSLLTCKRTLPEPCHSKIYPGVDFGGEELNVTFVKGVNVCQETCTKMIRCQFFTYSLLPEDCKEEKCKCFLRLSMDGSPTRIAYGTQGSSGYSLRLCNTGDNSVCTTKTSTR
Nature of the assay: Determination of the plasma kallikrein activity (fluorogenic peptide substrate H-Pro-Phe-Arg-AMC). The class given is biochemical. Particulars: plasma kallikrein from Kordia, 15 min preincubation, 30 min at 22° C., fluorescence; some as mean values from multiple determinations. How it is done: To determine the plasma kallikrein inhibition of the substances according to the invention, a biochemical test system is used which utilizes the reaction of a peptidic plasma kallikrein substrate to determine the enzymatic activity of human plasma kallikrein. Here, plasma kallikrein cleaves from the peptidic plasma kallikrein substrate the C-terminal aminomethylcoumarin (AMC), the fluorescence of which is measured. The determinations are carried out in microtitre plates.
Test substances are dissolved in dimethyl sulfoxide and serially diluted in dimethyl sulfoxide (3000 μM to 0.0078 μM; resulting final concentrations in the test: 50 μM to 0.00013 μM). In each case 1 μl of the diluted substance solutions is placed into the wells of white microtitre plates from Greiner (384 wells). 20 μl of assay buffer (50 mM Tris/HCl pH 7.4; 100 mM sodium chloride solution; 5 mM of calcium chloride solution; 0.1% of bovine serum albumin) and 20 μl of plasma kallikrein from Kordia (0.6 nM in assay buffer) are then added successively. After 15 min of incubation, the enzyme reaction is started by addition of 20 μl of the substrate H-Pro-Phe-Arg-AMC dissolved in assay buffer (10 μM in assay buffer) from Bachem, the mixture is incubated at room temperature (22° C.) for 30 min and fluorescence is then measured (excitation: 360 nm, emission: 460 nm). The measured emissions of the test batches with test substance are compared to those of control batches without test substance (only dimethyl sulfoxide instead of test substance in dimethyl sulfoxide), and IC50 values are calculated from the concentration/activity relationships. Activity data from this test are listed in Table B below (some as mean values from multiple independent individual determinations): […]

T1 sequence (P03951 388-625 limits assumed): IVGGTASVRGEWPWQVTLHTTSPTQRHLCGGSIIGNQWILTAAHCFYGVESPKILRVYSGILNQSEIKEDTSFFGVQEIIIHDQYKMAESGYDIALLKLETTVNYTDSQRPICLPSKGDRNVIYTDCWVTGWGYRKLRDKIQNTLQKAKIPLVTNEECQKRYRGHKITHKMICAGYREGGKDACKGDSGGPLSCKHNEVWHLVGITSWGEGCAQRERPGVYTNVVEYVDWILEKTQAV
T1 sequence (P03951 19-387 partner limits assumed): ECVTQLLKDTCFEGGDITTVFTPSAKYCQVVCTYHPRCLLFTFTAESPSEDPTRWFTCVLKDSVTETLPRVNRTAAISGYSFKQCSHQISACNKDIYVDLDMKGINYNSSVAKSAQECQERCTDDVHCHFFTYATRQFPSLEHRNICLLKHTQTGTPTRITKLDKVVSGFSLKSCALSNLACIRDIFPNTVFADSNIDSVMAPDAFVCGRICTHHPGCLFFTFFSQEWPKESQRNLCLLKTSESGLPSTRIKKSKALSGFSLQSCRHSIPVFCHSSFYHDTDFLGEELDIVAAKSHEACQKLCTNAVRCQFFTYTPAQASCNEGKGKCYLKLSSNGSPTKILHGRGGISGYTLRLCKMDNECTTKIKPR

As to `NC(=O)c1ccc(NC(=O)C(C[C@@H]2CCCCO2)n2cc3c(cc2=O)-c2cc(Cl)ccc2CC(CO)OC3)cc1F` (mixture of isomers) [Example 32, 4-{2-[11-Chloro-7-(hydroxymethyl)-2-oxo-7,8-dihydro-2H-[3]benzoxocino[5,6-c]pyridin-3(5H)-yl]-3-[(2S)-tetrahydro-2H-pyran-2-yl]propanamido}-2-fluorobenzamide], the IC50 is 30 nM in assay [1] and 1300 nM in assay [2].
In the same order, the values of `C[C@@H]1Cc2ccc(Cl)cc2-c2cc(=O)n([C@@H](C)C(=O)Nc3ccc(C(N)=O)cc3)cc2CO1` (single isomer, unassigned) [Example 76] are 9.8 nM and 190 nM.
The corresponding values for `NC(=O)c1ccc(NC(=O)C(C[C@@H]2CCCCO2)n2cc3c(cc2=O)-c2cc(Cl)ccc2CC(C(F)(F)F)OC3)cn1` (mixture of isomers) [Example 52, 5-({2-[11-Chloro-2-oxo-7-(trifluoromethyl)-7,8-dihydro-2H-[3]benzoxocino[5,6-c]pyridin-3(5H)-yl]-3-[(2S)-tetrahydro-2H-pyran-2-yl]propanoyl}amino)pyridine-2-carboxamide] are 6.5 nM and 790 nM.
In the same order, the values of `CO[C@@H](C)C[C@@H](C(=O)Nc1ccc(C(N)=O)cc1)n1cc2c(cc1=O)-c1c(ccc(Cl)c1Cl)C[C@@H](C(F)(F)F)OC2` (single isomer, unassigned) [Example 80] are 9.5 nM and 280 nM.
In the case of `NC(=O)c1ccc(NC(=O)C(C[C@@H]2COCCO2)n2cc3c(cc2=O)-c2cc(Cl)ccc2CC(CO)OC3)cc1` (mixture of isomers) [Example 36, 4-{2-[11-Chloro-7-(hydroxymethyl)-2-oxo-7,8-dihydro-2H-[3]benzoxocino[5,6-c]pyridin-3(5H)-yl]-3-[(2R)-1,4-dioxan-2-yl]propanamido}benzamide], the IC50 in assay [1] amounted to 12 nM; in assay [2], 1000 nM.
The corresponding values for `NC(=O)c1ccc(NC(=O)C(C[C@@H]2CCCCO2)n2cc3c(cc2=O)-c2cc(Cl)ccc2CC(C(F)(F)F)OC3)cc1` (mixture of isomers) [Example 54, 4-({2-[11-Chloro-2-oxo-7-(trifluoromethyl)-7,8-dihydro-2H-[3]benzoxocino[5,6-c]pyridin-3(5H)-yl]-3-[(2S)-tetrahydro-2H-pyran-2-yl]propanoyl}amino)benzamide] are 2.8 nM and 400 nM.
In the same order, the values of `CC[C@@H](C(=O)Nc1ccc(C(N)=O)cc1)n1cc2c(cc1=O)-c1c(ccc(Cl)c1F)C[C@@H](C)OC2` (single isomer, unassigned) [Example 28] are 12 nM and 190 nM.
In the same order, the values of `NC(=O)c1ccc(NC(=O)[C@H](C[C@@H]2COCCO2)n2cc3c(cc2=O)-c2cc(Cl)ccc2C[C@@H](CO)OC3)cc1` (single isomer, unassigned) [Example 37] are 6 nM and 320 nM.
On to `C[C@@H]1Cc2ccc(Cl)cc2-c2cc(=O)n([C@@H](C[C@@H]3COCCO3)C(=O)Nc3ccc(C(N)=O)cc3)cc2CO1` (single isomer, unassigned) [Example 10], for which the values for the IC50 in assay [1] and in assay [2] were 1.2 nM and 87 nM, respectively.
In the same order, the values of `NC(=O)c1ccc(NC(=O)[C@H](C[C@@H]2CCCCO2)n2cc3c(cc2=O)-c2cc(Cl)ccc2C[C@@H](C(F)(F)F)OC3)cc1F` (single isomer, unassigned) [Example 51] are 4.2 nM and 360 nM.
With `C[C@@H]1Cc2ccc(Cl)cc2-c2cc(=O)n([C@@H](CCOC3CC3)C(=O)Nc3ccc(C(N)=O)cc3)cc2CO1` (single isomer, unassigned) [Example 27], the IC50 in assay [1] amounted to 6.6 nM; in assay [2] it was 71 nM.
The corresponding values for `NC(=O)c1ccc(NC(=O)[C@H](C[C@@H]2CCCCO2)n2cc3c(cc2=O)-c2cc(Cl)ccc2C[C@@H](CO)OC3)cc1` (single isomer, unassigned) [Example 35] are 2.1 nM and 170 nM.
